Test results from US20260373266A1, “PROTEIN DEGRADERS AND USES THEREOF” (KYMERA THERAPEUTICS, INC., priority 2022, published 2026).

Target: T1, DCAF1 WD40 domain (residues 1077-1390) (Homo sapiens, UniProt Q9Y4B6)
T1 construct: DCAF1 WD40 domain (residues 1077-1390)
Assay: DCAF1 binding assay by SPR (Biacore 8K+), DCAF1-3 KD
Details: 25 °C, read-out: DCAF1-3 SPR (KD)

T1 sequence (Q9Y4B6 1077-1390): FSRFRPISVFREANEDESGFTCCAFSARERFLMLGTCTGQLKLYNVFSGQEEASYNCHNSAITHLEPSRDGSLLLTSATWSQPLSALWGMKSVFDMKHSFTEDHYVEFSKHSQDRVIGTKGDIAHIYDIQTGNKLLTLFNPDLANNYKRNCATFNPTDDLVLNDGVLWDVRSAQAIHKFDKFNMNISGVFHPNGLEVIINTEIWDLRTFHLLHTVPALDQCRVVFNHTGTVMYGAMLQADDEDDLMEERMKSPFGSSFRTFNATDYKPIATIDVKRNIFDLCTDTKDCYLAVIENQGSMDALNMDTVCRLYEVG

Kd [µM]	Structure (SMILES)
10 to 100	COCCN(c1cc(N2CCCCC2)ccn1)[C@@H]1CCCN(c2cccc(F)c2)C1 [I-596]
> 200	Cc1sc2c(c1C)C(c1ccc(Cl)cc1)=N[C@@H](CC(=O)NCCOCCOCCOCCOCCOCCOCCn1ncc(C(=O)N[C@@H](CC(N)=O)c3cccc(Cl)c3)c1-c1ccccc1F)c1nnc(C)n1-2 [I-492]
> 200	CC(NC(=O)c1cn[nH]c1-c1cccc(Cl)c1)c1ccc[nH]1 (stereo not shown) [I-836]
> 200	Fc1cccc(N2CCC[C@@H](Nc3nc(N4CCOCC4)c[nH]3)C2)c1 [I-326]
10 to 100	Fc1cccc(N2CCC[C@@H](n3ccc(N4CCOCC4)c4ccnc3-4)C2)c1 [I-58]
10 to 100	c1ccc2c(N3CCC[C@@H](Nc4nccc(N5CCOCC5)n4)C3)cncc2c1 [I-54]
< 10	O[C@@H]1CCCN(c2ccnc(N3CC[C@@H]4[C@H]3CCCN4c3cccc(F)c3)c2)C1 [I-794]
> 200	Fc1cccc(N2CCC[C@@H](Nc3cc(N4CCOCC4)ncc3C(F)(F)F)C2)c1 [I-405]
> 200	NC(=O)C[C@H](NC(=O)c1n[nH]c2ccccc12)c1cccc(Cl)c1 [I-297]
10 to 100	Fc1cccc(N2CC[C@@H](Nc3cc(N4CCOCC4)ccn3)C2)c1 [I-198]
10 to 100	C=CC(=O)NCCC1CCCN(c2ccnc(N[C@@H]3CCCN(c4cccc(F)c4)C3)c2)C1 (stereo partly shown) [I-664]
> 200	NS(=O)(=O)c1nc(N2CCC[C@@H](Nc3cc(N4CCOCC4)ccn3)C2)cs1 [I-413]
< 10	Cc1c(F)ccc(F)c1-c1c(C(=O)N[C@@H](CC(N)=O)c2cccc(Cl)c2)cn(C)c1C(=O)c1ccc(O)cc1 [I-1030]
< 10	Fc1cccc(N2CCC[C@@H]3[C@H]2CCN3c2cc(N3CC4CCC(C4)C3)ccn2)c1 [I-604]
> 200	COc1ncccc1-c1[nH]ncc1C(=O)N[C@@H](CC(N)=O)c1cccc(Cl)c1 [I-504]
> 200	O=S(=O)(c1cc(N2CCOCC2)ccn1)C1CCCN(c2cccc(F)c2)C1 (stereo not shown) [I-264]
< 10	Cc1c(F)ccc(F)c1-c1c(C(=O)N[C@@H](CC(N)=O)c2cccc(Cl)c2)cn(C)c1C(=O)c1ccc(CN2CCC(C=O)CC2)cc1 [I-1037]
10 to 100	O=C(O)C1(c2cccc(N3CCC[C@@H](Nc4cc(N5CCOCC5)ccn4)C3)c2)CCCC1 [I-697]
10 to 100	C[C@H]1CCCCN1c1ccnc(N2CC[C@H]3[C@@H]2CCCN3c2cccc(F)c2)c1 [I-644]
> 200	COc1cc(N[C@@H]2CCCN(c3cccc(F)c3)C2)cc(N2CCOCC2)c1 [I-547]
< 10	C[C@H]1CC[C@H](c2[nH]ncc2C(=O)N[C@@H](CC(N)=O)c2cccc(Cl)c2)CC1 [I-741]

Kd [µM]	Structure (SMILES)
> 200	CC(F)(c1cc(N2CCOCC2)ccn1)C1CCCN(c2cccc(F)c2)C1 (stereo not shown) [I-266]
> 200	c1ccc(N2CCC[C@@H](Nc3cc(N4CCOCC4)ncn3)C2)nc1 [I-11]
100 to 200	Cc1ccc(N2CCC[C@@H](Nc3cc(N4CCOCC4)ncn3)C2)cc1 [I-8]
> 200	c1ccc2c(c1)nc(N1CCC[C@@H](Nc3cc(N4CCOCC4)ccn3)C1)c1nnnn12 [I-423]
10 to 100	Oc1ccc(F)cc1N1CCC[C@@H]2[C@H]1CCN2c1cc(N2CCCCC2)ccn1 [I-812]
> 200	N#Cc1cc2c(nc1N1CCC[C@@H](Nc3cc(N4CCOCC4)ccn3)C1)CCC2 [I-427]
10 to 100	NC(=O)C[C@H](NC(=O)c1c[nH]nc1-c1cc(C(=O)O)ccc1F)c1cccc(Cl)c1 [I-523]
> 200	O=C(N[C@H](c1cccc(Cl)c1)[C@H]1CCNC1=O)c1c[nH]nc1-c1ccccc1F [I-192]
10 to 100	CCNC(=O)C[C@H](NC(=O)c1cn[nH]c1-c1ccccc1F)c1cccc(Cl)c1 [I-83]
100 to 200	C=CC(=O)NCCCN1CCN(c2ccnc(N[C@@H]3CCCN(c4cccc(F)c4)C3)c2)CC1 [I-621]
> 200	Fc1cccc(N2CCC[C@H](Cc3cc(N4CCOCC4)ccn3)C2)c1 [I-98]
100 to 200	Fc1cccc(N2CCC[C@H]3[C@@H]2CCN3c2cc(N3CCCCC3)ccn2)c1 [I-580]
< 10	Nc1ncc(N[C@@H]2CCCN(c3cccc(F)c3)C2)cc1N1CCOCC1 [I-546]
> 200	C=CC(=O)N1CCC(c2n[nH]cc2C(=O)N[C@@H](CC(N)=O)c2cccc(Cl)c2)CC1 [I-452]
< 10	OCCOCCOCCOCCOCCC1CCCCN1c1ccnc(N2CC[C@@H]3[C@H]2CCCN3c2cccc(F)c2)c1 (stereo partly shown) [I-971]
> 200	c1ccc2cc(N3CCC[C@@H](Nc4nccc(N5CCOCC5)n4)C3)ccc2c1 [I-32]
> 200	CC(C)Cn1cc(N2CCC[C@@H](Nc3cc(N4CCOCC4)ccn3)C2)cn1 [I-421]
10 to 100	NC[C@H]1C[C@H](Nc2cc(N3CCCCC3)ccn2)CN(c2cccc(F)c2)C1 [I-1039]
> 200	Oc1c(CN2CCCCC2)cccc1[C@H]1CCCN(c2cccc(F)c2)C1 [I-731]
< 10	COc1ncc(N[C@@H]2CCCN(c3cccc(F)c3)C2)cc1N1CCOCC1 [I-558]
> 200	C[n+]1ccc(N2CCOCC2)cc1N[C@@H]1C[C@@H](O)CN(c2cccc(F)c2)C1 [I-520]

Kd [µM]	Structure (SMILES)
10 to 100	COc1ncc2cc[nH]c2c1N1CCC[C@@H](Nc2cc(N3CCOCC3)ccn2)C1 [I-859]
> 200	c1ccc2c(N3CCC[C@@H](Nc4cc(N5CCOCC5)ccn4)C3)nccc2c1 [I-62]
10 to 100	NC[C@H]1CC[C@H](Nc2cc(N3CCCCC3)ccn2)CN1c1cccc(F)c1 [I-1021]
< 10	C=CC(=O)N(C)CCCCC1CCN(c2ccnc(N3CC[C@@H]4[C@H]3CCCN4c3cccc(F)c3)c2)CC1 [I-850]
< 10	Cc1cc(Cl)cc(C)c1-c1c(C(=O)N[C@@H](CC(N)=O)c2cccc(Cl)c2)c[nH]c1C(=O)c1ccccc1 [I-969]
< 10	Clc1cccc(N2CCC[C@H]3[C@@H]2CCN3c2cc(N3CC4CC(C4)C3)ccn2)c1 [I-717]
< 10	NC(=O)C[C@H](NC(=O)c1cn[nH]c1-c1ccc(F)cc1)c1cccc(Cl)c1 [I-116]
> 200	NC(=O)C[C@H](NC(=O)c1c[nH]nc1-c1cc(=O)[nH]cn1)c1cccc(Cl)c1 [I-238]
10 to 100	NCCCc1ccc(N2CCC[C@@H](Nc3cc(N4CCOCC4)ccn3)C2)cc1 [I-856]
> 200	NC(=O)C[C@H](NC(=O)c1cnn(C(=O)c2ccccc2)c1-c1ccccc1F)c1cccc(Cl)c1 [I-173]
100 to 200	Fc1cccc(N2CCC[C@@H](Nc3cccc(N4CCOCC4)n3)C2)c1 [I-17]
> 200	NC(=O)C[C@H](NC(=O)c1cn[nH]c1-c1ccccc1F)c1cccc(O)c1 [I-129]
100 to 200	c1cc(N2CCC[C@@H](Nc3nccc(N4CCOCC4)n3)C2)c2cccnc2c1 [I-53]
< 10	Cc1sc2c(c1C)C(c1ccc(Cl)cc1)=N[C@@H](CC(=O)NCCOCCOCCOCCOCCOCC(=O)c1c(-c3c(F)ccc(F)c3C)c(C(=O)N[C@@H](CC(N)=O)c3cccc(Cl)c3)cn1C)c1nnc(C)n1-2 [I-912]
10 to 100	NC(=O)[C@H]1CC[C@@H](Nc2cc(N3CCCCC3)ccn2)CN1c1cccc(F)c1 [I-1025]
> 200	NC(=O)C[C@H](NC(=O)c1[nH]nc(NC2CCCCC2)c1-c1ccccc1F)c1cccc(Cl)c1 [I-171]
< 10	C[C@H]1[C@@H](O)CCCN1c1ccnc(N2CC[C@@H]3[C@H]2CCCN3c2cccc(F)c2)c1 [I-833]
< 10	COCCc1ccc(-c2[nH]ncc2C(=O)N[C@@H](CC(N)=O)c2cccc(Cl)c2)c(F)c1 [I-511]
> 200	COC(=O)C[C@H](NC(=O)c1cn[nH]c1-c1ccccc1F)c1cccc(Cl)c1 [I-757]
